{"source": "patent US9556231B2", "about": "“Beta-hairpin peptidomimetics as CXC4 antagonists” (POLYPHOR AG, priority 2011, dated 2017)", "key": {"[1]": {"assay": "Pharmacokinetic study (PK), i.v., CD-1 mice", "type": "in vivo", "settings": "male, CD-1, in vivo, iv, mouse, i.v. 1 mg/kg", "procedure": "For the compounds of Ex. 1, Ex. 2, Ex. 3, Ex. 4, Ex. 5 and Ex. 6 pharmacokinetic studies after intravenous (i.v.) administration were performed.\n30 grams (±20%) male CD-1 mice obtained from Charles River Laboratories Deutschland GmbH were used. The vehicle, phosphate buffered saline, was added to give a final concentration of 0.5 mg/mL of the compound. The volume was 2 mL/kg and the compound was injected to give a final intravenous dose of 1 mg/kg. Approximately 300-400 μL of blood was removed under light isoflurane anesthesia by cardiac puncture at predetermined time intervals (5, 15, 30 min and 1, 2, 3, 4, hours) and added to heparinized tubes. Plasma was removed from pelleted cells upon centrifugation and frozen at −80° C. prior to HPLC-MS analysis.\nAliquots of 50 μL each of mouse plasma of untreated aminals (“blank” mouse plasma) were spiked with known amounts of the compounds Ex. 1, Ex. 2, Ex. 3, Ex. 4, Ex. 5 and Ex. 6 in order to obtain 10 plasma calibration samples for each compound in the range 1-4000 ng/mL. Aliquots of 50 μL each of mouse plasma from treated animals were used as plasma study samples.\nAll plasma samples were spiked with an appropriate internal standard and extracted with acetonitrile containing 2% formic acid. Supernatants were evaporated to dryness under nitrogen and the remaining solids reconstituted in water/acetonitrile 95/5 (v/v)+0.2% formic acid.\nExtracts were then analyzed by reverse-phase chromatography (Acquity BEH C18, 100×2.1 mm, 1.7 μm column, Waters for Ex. 1 and Acquity HSS C18 SB, 100×2.1 mm, 1.8 μm column, Waters for Ex. 2, Ex. 3, Ex. 4, Ex. 5 and Ex. 6), using the following conditions: Ex. 1, mobile phases: (A) water/acetonitrile 95/5 (v/v)+0.1% formic acid, (B) acetonitrile/water 95/5 (v/v)+0.1% formic acid, gradient: 1% (B) 0-0.1 min, 15% (B) 0.1-2.5 min for Ex. 1 and 1% (B) 0-0.1 min, 40% (B) 0.1-2.5 min for Ex. 2, Ex. 3, Ex. 4, Ex. 5 and Ex. 6. The detection and quantification was performed by mass spectrometry, with electrospray interface in positive mode and selective fragmentation of analytes (4000 Q Trap mass spectrometer, AB Sciex).\nPK parameters were calculated by WinNonLin™ software version 5.3 (Pharsight-A Certara™ Company, Mountain View, Calif. 94041 USA) using a one-compartmental model analysis. PK parameters were determined by least-square fitting of the model to the experimental data."}, "[2]": {"assay": "Cytotoxicity, MTT reduction assay, COS-7 cells", "type": "cell-based", "settings": "African green monkey", "procedure": "Namalwa cells (CXCR4 natively expressing non-adherent cells, ATCC CRL-1432) were cultured in RPMI1640 plus 10% FBS, and pen/strept. HELA cells were maintained in RPMI1640 plus 10% FBS, pen/strept and 2 mM L-glutamine. Cos-7 cells were grown in DMEM medium with […] glucose supplemented with 10% FCS, pen/strept and 2 mM L-glutamine. All cell lines were grown at 37° C. at 5% CO2. Cell media, media supplements, PBS-buffer, HEPES, antibiotic/antimycotic, pen/strept, non essential amino acid, L-glutamine, β-mercaptoethanol and sera were purchased from Gibco (Pailsey, UK). All fine chemicals were supplied by Merck (Darmstadt, Germany).\nThe cytotoxicity of the peptides to HELA cells (Acc57) and COS-7 cells (CRL-1651) was determined using the MTT reduction assay (T. Mossman, J. Immunol. Meth. 1983, 65, 55-63; M. V. Berridge, A. S. Tan, Arch. Biochem. Biophys. 1993, 303, 474-482). Briefly, the method was as follows: 4000 HELA cells/well and 3400 COS-7 cells/well were seeded and grown in 96-well microtiter plates for 24 h at 37° C. at 5% CO2. Thereafter, time zero (Tz) was determined by MTT reduction (see below). The supernatant of the remaining wells was discarded, and fresh medium and compounds in serial dilutions (12.5, 25 and 50 μM, triplicates; 0 μM, blank) were pipetted into the wells. After incubation of the cells for 48 h at 37° C. at 5% CO2 the supernatant was discarded again and 100 μL MTT reagent (0.5 mg/mL in RPMI1640 and DMEM, respectively)/well was added. Following incubation at 37° C. for 2-4 h the media were aspirated and the cells were spiked (100 μL isopropanol/well). The absorbance of the solubilized formazan was measured at 595 nm (OD595peptide). For each concentration averages were calculated from triplicates. The percentage of growth was calculated as follows: (OD595peptide−OD595Tz)/(OD595blank−OD595Tz)×100%. The GI50 (Growth Inhibition) concentrations were calculated for each peptide by using a trend line function for the concentrations (50, 25, 12.5 and 0 μM), the corresponding percentages and the value 50, (=TREND (C50:C0,%50:%0,50)."}, "HSC mobilization": {"system": "HSC mobilization", "assay": "HSC mobilization in mouse, dose-response study (CFU-C assay)", "type": "in vivo", "settings": "C57Bl/6 mice, 5 mg/kg i.p., at time of maximum mobilization (Ex. 1 4 h, Ex. 2 2 h)", "procedure": "For the compounds of Ex. 1 and Ex. 2 a HSC mobilization study was performed consisting of a time-response study to assess the time of maximum mobilization after dosing and a subsequent dose-response study.\nMale C57Bl/6 mice (Janvier, France; n=5 per dose group for Ex. 1, n=3 per dose group for Ex. 2) received bolus i.p. injections of Ex. 1 and Ex. 2, respectively, at doses of 0.5, 1.5, 5 and 15 mg/kg (compound dissolved in 10 μL of water per g mouse weight containing 0.9% NaCl). Blood was collected as described above at the time of maximum mobilization for Ex. 1 (4 h) and Ex. 2 (2 h), respectively.\nCFU-C counts were determined by culturing aliquots of lysed peripheral blood in standard semi-solid progenitor cell culture medium. In brief, a defined amount of blood was washed with PBS buffer (Gibco®) containing 0.5% bovine serum albumin, followed by red blood cell lysis in hypotonic NH4Cl buffer (Sigma) and a second wash step. The cell pellet was resuspended in DMEM (Gibco®) containing 10% FCS, suspended in 2 mL of commercially available, cytokine-replete methylcellulose medium for murine cells (Cell Systems, USA), and plated in duplicate into 35 mm cell culture dishes. CFU-C were scored after 7-8 days incubation under standard conditions (20% O2, saturated humidity, 5% CO2, 37° C.). Peripheral blood cellularity was analyzed using an automated blood count machine (Drew Scientific). […]"}}, "note": "Bridge positions count the residues as written; N and C are the ends. Square brackets hold non-standard residues; d marks the D form. Peptide text beside a SMILES is read from it. Lys(iPr) = CC(C)NCCCC[C@H](N)C(=O)O; Orn(iPr) = CC(C)NCCC[C@H](N)C(=O)O"}
{"smiles": "COc1ccc(C[C@@H]2NC(=O)[C@H](Cc3c[nH]cn3)NC(=O)[C@H](Cc3ccc(O)cc3)NC(=O)[C@@H]3CCCN3C(=O)[C@H]3CCCN3C(=O)[C@H](CCCCNC(C)C)NC(=O)[C@H](CCC(N)=O)NC(=O)[C@H](Cc3ccc(O)cc3)NC(=O)[C@@H]3CSSC[C@H](NC2=O)C(=O)N[C@@H](CO)C(=O)N[C@@H](C)C(=O)N2CCC[C@@H]2C(=O)N[C@@H](CCCNC(C)C)C(=O)N[C@@H](CCCNC(=N)N)C(=O)N[C@@H](Cc2ccc(O)cc2)C(=O)N3)cc1", "note": "[Ex. 2, cyclo(-Tyr^1-His^2-Tyr(Me)^3-Cys^4-Ser^5-Ala^6-^DPro^7-Orn(iPr)^8-Arg^9-Tyr^10-Cys^11-Tyr^12-Gln^13-Lys(iPr)^14-^DPro^15-Pro^16-), disulfide bond between Cys^4 and Cys^11] (cyclo(YHY(Me)CSA[dP][Orn(iPr)]RYCYQ[Lys(iPr)][dP]P); disulfide 4-11)", "values": [{"measurement": "level at 0.083 h", "setting": "[1]; 0.083 h, read-out: Calc. Conc. (plasma)", "value": 1430, "unit": "ng/mL"}, {"measurement": "level at 0.25 h", "setting": "[1]; 0.25 h, read-out: Calc. Conc. (plasma)", "value": 1300, "unit": "ng/mL"}, {"measurement": "level at 0.5 h", "setting": "[1]; 0.5 h, read-out: Calc. Conc. (plasma)", "value": 836, "unit": "ng/mL"}, {"measurement": "level at 1 h", "setting": "[1]; 1 h, read-out: Calc. Conc. (plasma)", "value": 578, "unit": "ng/mL"}, {"measurement": "level at 2 h", "setting": "[1]; 2 h, read-out: Calc. Conc. (plasma)", "value": 234, "unit": "ng/mL"}, {"measurement": "level at 3 h", "setting": "[1]; 3 h, read-out: Calc. Conc. (plasma)", "value": 68, "unit": "ng/mL"}, {"measurement": "level at 4 h", "setting": "[1]; 4 h, read-out: Calc. Conc. (plasma)", "value": 22, "unit": "ng/mL"}, {"measurement": "AUC(0-inf)", "setting": "[1]; one-compartmental model", "value": 1520, "unit": "ng·h/mL"}, {"measurement": "Cmax", "setting": "[1]; one-compartmental model", "value": 1580, "unit": "ng/mL"}, {"measurement": "clearance", "setting": "[1]; one-compartmental model", "value": 11, "unit": "mL/min/kg"}, {"measurement": "half-life", "setting": "[1]; one-compartmental model", "value": 42, "unit": "min"}, {"measurement": "Vd", "setting": "[1]; one-compartmental model, read-out: Vdis", "value": 0.635, "unit": "L/kg"}, {"measurement": "GI50 at 48 h", "setting": "[2]", "value": "> 50", "unit": "µM"}, {"measurement": "CFU/mL ± SD", "setting": "HSC mobilization", "value": 2894, "unit": "CFU/mL"}]}
